Our source for the half-life, Ki and pKa values is ChEMBL document CHEMBL1136188, “1H-Pyrazolo-[3,4-c]cyclophepta[1,2-c]thiophenes: a unique structural class of dopamine D4 selective ligands” (Bioorg Med Chem Lett, 2003).

Structures are written as SMILES.

Series [1] is described as follows: Half life in human microsomes. The format is ADME, Microsome.
A further series addresses D(2) dopamine receptor (Homo sapiens, UniProt P14416). Briefly: Binding affinity towards cloned human Dopamine receptor D2 was determined.
The target in another series is T1, D(4) dopamine receptor (Homo sapiens, UniProt P21917).
T1 sequence (P21917 whole entry): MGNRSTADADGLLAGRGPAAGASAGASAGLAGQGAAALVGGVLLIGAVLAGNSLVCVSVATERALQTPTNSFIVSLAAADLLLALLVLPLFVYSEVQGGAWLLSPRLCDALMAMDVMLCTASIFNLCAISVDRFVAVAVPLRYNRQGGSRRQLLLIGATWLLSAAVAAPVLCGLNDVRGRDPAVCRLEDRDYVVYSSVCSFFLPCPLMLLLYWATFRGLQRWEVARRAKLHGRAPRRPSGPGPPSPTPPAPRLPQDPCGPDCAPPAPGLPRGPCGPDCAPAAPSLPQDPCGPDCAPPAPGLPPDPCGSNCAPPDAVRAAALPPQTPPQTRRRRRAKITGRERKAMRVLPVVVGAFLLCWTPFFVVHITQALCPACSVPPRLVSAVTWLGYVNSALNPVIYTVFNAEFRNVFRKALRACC
Briefly: Binding affinity to recombinant human dopamine receptor D4.

In series [2] the target is T2, D(4) dopamine receptor (Homo sapiens) (UniProt P21917).
T2 sequence (whole entry): T1 sequence (P21917 whole entry)
The series is described as follows: Association constant towards cloned human dopamine D4 receptor was determined.

Sequence of D(2) dopamine receptor (P14416 whole entry): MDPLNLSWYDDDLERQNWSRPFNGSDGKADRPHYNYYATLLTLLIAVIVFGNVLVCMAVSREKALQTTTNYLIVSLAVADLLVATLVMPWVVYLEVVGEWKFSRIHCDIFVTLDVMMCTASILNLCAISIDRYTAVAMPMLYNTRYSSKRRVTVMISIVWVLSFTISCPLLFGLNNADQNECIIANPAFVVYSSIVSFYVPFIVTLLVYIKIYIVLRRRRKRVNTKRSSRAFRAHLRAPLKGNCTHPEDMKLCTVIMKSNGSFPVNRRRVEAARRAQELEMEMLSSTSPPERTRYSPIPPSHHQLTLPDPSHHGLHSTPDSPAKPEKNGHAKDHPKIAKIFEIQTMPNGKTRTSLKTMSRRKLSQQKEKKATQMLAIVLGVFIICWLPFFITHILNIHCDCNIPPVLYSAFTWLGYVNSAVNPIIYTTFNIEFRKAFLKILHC

Take `Cc1sc(C)c2c1SCc1cnn(C)c1-2`: the half-life in series [1] was less than 1 min. In addition, the Ki was 111 nM on D(2) dopamine receptor and 3 nM on D(4) dopamine receptor. In addition, the pKa in series [2] is 3.06. `Cc1sc(C)c2c1CCCc1c-2n[nH]c1CN(C)C`: the Ki at D(4) dopamine receptor was 2560 nM. For the compound `Cc1sc(C)c2c1CCCc1ncn(C)c1-2`, the Ki is greater than 10000 nM on D(2) dopamine receptor and 1290 nM at D(4) dopamine receptor.

Turning to `Cc1sc(C)c2c1CCCc1nccn1-2`, the figures for the Ki at D(2) dopamine receptor and on D(4) dopamine receptor were greater than 10000 nM and 301 nM, respectively. The matching figures for `Cn1ncc2c1-c1ccccc1CCC2`: greater than 10000 nM and greater than 10000 nM.

On to `Cc1ccc(C)c2c1CCCc1c[nH]nc1-2`, for which the Ki is greater than 10000 nM on D(2) dopamine receptor and 425 nM on D(4) dopamine receptor. For `Cc1sc(C)c2c1CCc1cn(C)nc1-2`, the inhibition constant Ki on D(4) dopamine receptor turned out to be 2870 nM.

Regarding `Cc1sc(C)c2c1CCCc1cn(C)nc1-2`, the values for the Ki on D(2) dopamine receptor and on D(4) dopamine receptor were 641 nM and 228 nM, respectively. In the case of `CC(C)n1ncc2c1-c1c(Cl)sc(Cl)c1CCC2`, the Ki at D(2) dopamine receptor was greater than 10000 nM; on D(4) dopamine receptor, 1560 nM. The matching figures for `CCn1ncc2c1-c1c(Cl)sc(Cl)c1CCC2`: 489 nM and 168 nM. `CCCn1ncc2c1-c1c(C)sc(C)c1CCC2`: the Ki on D(2) dopamine receptor stood at 885 nM; at D(4) dopamine receptor, 97 nM. For the compound `Cc1sc(C)c2c1CCCc1cnn(C)c1-2`, the Ki on D(2) dopamine receptor came out at 176 nM; at D(4) dopamine receptor it was 2 nM. Turning to `CCn1ncc2c1-c1c(C)sc(C)c1CCC2`, the inhibition constant Ki worked out at 402 nM at D(2) dopamine receptor and 22 nM on D(4) dopamine receptor. Regarding `Cc1sc(C)c2c1CN(C)Cc1c[nH]nc1-2`, the Ki on D(4) dopamine receptor was greater than 10000 nM.

`c1ccc2c(c1)CCCc1c[nH]nc1-2`: the Ki at D(2) dopamine receptor and on D(4) dopamine receptor was greater than 10000 nM throughout.

Consider `Cc1sc(C)c2c1CCc1c[nH]nc1-2`, for which the Ki at D(4) dopamine receptor was found to be 170 nM. Consider `Cc1sc(C)c2c1CCc1cnn(C)c1-2`, for which the Ki amounted to 462 nM at D(2) dopamine receptor and 26 nM at D(4) dopamine receptor. The matching figures for `Cc1oc(C)c2c1CCCc1cnn(C)c1-2`: 28 nM and 11 nM. As to `Clc1sc(Cl)c2c1CCCc1cnn(Cc3ccccc3)c1-2`, the inhibitory constant (Ki) at D(2) dopamine receptor and on D(4) dopamine receptor was greater than 10000 nM in each case. Take `Cc1sc(C)c2c1CCCc1cnn(-c3ccccc3)c1-2`: the Ki at D(2) dopamine receptor is greater than 10000 nM; at D(4) dopamine receptor, 1580 nM.

For `Cc1sc(C)c2c1CCCc1nnc(C)n1-2`, the Ki was greater than 10000 nM at D(2) dopamine receptor and 462 nM on D(4) dopamine receptor.

In the case of `Clc1sc(Cl)c2c1CCCc1c[nH]nc1-2`, the Ki is 534 nM on D(2) dopamine receptor and 169 nM on D(4) dopamine receptor. The matching figures for `Cc1sc(C)c2c1CC(C)(C)Cc1c[nH]nc1-2`: greater than 10000 nM and 1300 nM. Regarding `Cc1oc(C)c2c1CCCc1c[nH]nc1-2`, the Ki on D(4) dopamine receptor is 275 nM. On to `Cn1cc2c(n1)-c1ccccc1CCC2`, for which the Ki at D(2) dopamine receptor was greater than 10000 nM; on D(4) dopamine receptor, 507 nM. As to `Cc1sc(C)c2c1CCCc1nncn1-2`, the Ki on D(2) dopamine receptor was greater than 10000 nM; at D(4) dopamine receptor it was 4320 nM. In the case of `Cc1sc(C)c2c1CCCc1cnn(C(C)C)c1-2`, the Ki at D(2) dopamine receptor stood at 555 nM; on D(4) dopamine receptor it was 138 nM. The matching figures for `CCCn1ncc2c1-c1c(Cl)sc(Cl)c1CCC2`: greater than 10000 nM and 3550 nM. The matching figures for `Cn1ncc2c1-c1c(Cl)sc(Cl)c1CCC2`: 416 nM and 14 nM.
